Data reported in ChEMBL document CHEMBL1143186, “Total synthesis and evaluation of [18F]MHMZ” (Bioorg Med Chem Lett, 2008).
pKi: −log10 of the molar value.

Tests used:
[1] = target: 5-hydroxytryptamine receptor 2A (Rattus norvegicus, UniProt P14842); assay: Displacement of [3H]MDL from rat 5HT2A receptor expressed in GF62 cells; type: cell-based
[2] = test system: Nucleic Acid; assay: Ratio of drug level in laminae 6a + 6b region to cerebellum in rat; type: ADME, tissue-based; details: in vitro
[3] = test system: Nucleic Acid; assay: Ratio of drug level in caudate-putamen to cerebellum in rat; type: ADME, tissue-based; details: in vitro
[4] = Metabolic stability in rat plasma assessed as unmetabolized fraction after 10 mins; type: ADME, cell-free; details: read-out: Stability
[5] = test system: Brain; assay: Drug level in rat brain lamina 5 region; type: ADME, tissue-based; details: in vivo
[6] = test system: Caudate-putamen; assay: Drug level in rat brain caudate-putamen; type: ADME, tissue-based; details: in vivo
[7] = test system: Nucleic Acid; assay: Ratio of drug level in laminae 1-4 region to cerebellum in rat; type: ADME, tissue-based; details: in vivo
[8] = test system: Nucleic Acid; assay: Ratio of drug level in lamina 5 region to cerebellum in rat; type: ADME, tissue-based; details: in vivo
[9] = test system: Laminae; assay: Drug level in rat brain laminae 6a + 6b region; type: ADME, tissue-based; details: in vivo
[10] = Metabolic stability in rat plasma assessed as unmetabolized fraction after 60 mins; type: ADME, cell-free; details: read-out: Stability
[11] = Metabolic stability in rat plasma assessed as unmetabolized fraction after 5 mins; type: ADME, cell-free; details: read-out: Stability
[12] = Metabolic stability in rat plasma assessed as unmetabolized fraction after 30 mins; type: ADME, cell-free; details: read-out: Stability
[13] = test system: Brain; assay: Drug level in rat brain laminae 1-4 region; type: ADME, tissue-based; details: in vivo
[14] = target: 5-hydroxytryptamine receptor 2A (Homo sapiens, UniProt P28223); assay: Binding affinity to 5HT2A receptor
5-hydroxytryptamine receptor 2A (Homo sapiens, UniProt P28223), sequence (P28223 whole entry): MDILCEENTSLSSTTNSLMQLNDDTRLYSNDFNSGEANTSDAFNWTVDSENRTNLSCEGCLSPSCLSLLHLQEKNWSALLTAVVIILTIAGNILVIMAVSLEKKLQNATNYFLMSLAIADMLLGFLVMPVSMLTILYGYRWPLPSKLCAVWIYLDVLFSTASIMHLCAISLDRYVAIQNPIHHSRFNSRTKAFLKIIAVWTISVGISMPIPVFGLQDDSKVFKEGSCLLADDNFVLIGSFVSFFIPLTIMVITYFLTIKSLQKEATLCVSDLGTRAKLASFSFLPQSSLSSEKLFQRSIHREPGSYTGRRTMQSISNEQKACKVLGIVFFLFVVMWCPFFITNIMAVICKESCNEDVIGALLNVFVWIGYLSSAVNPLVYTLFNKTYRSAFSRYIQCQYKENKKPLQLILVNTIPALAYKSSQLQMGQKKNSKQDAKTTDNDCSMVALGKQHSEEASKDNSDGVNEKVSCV

5-hydroxytryptamine receptor 2A (Rattus norvegicus, UniProt P14842), sequence (P14842 whole entry): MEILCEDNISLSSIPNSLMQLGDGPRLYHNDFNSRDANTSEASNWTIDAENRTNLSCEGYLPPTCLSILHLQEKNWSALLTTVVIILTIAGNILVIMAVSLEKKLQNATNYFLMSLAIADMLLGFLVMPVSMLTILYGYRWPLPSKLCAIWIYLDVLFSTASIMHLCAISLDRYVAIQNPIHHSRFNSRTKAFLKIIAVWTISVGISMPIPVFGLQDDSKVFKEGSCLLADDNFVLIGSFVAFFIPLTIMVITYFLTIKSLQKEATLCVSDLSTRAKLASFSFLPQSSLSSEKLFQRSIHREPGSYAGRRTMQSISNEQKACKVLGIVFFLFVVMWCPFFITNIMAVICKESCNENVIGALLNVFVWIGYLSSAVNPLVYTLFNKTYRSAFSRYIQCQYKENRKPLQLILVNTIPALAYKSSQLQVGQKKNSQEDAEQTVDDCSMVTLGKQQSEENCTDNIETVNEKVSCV

SMILES | pKi [1] | Ratio [2] | Ratio [3] | remaining at 10 min [4] [%] | Drug uptake [5] [pmol/mm3] | Drug uptake [6] [pmol/mm3] | Ratio [7] | Ratio [8] | Drug uptake [9] [pmol/mm3] | remaining at 1 h [10] [%] | remaining at 5 min [11] [%] | remaining at 0.5 h [12] [%] | Drug uptake [13] [pmol/mm3] | pKi [14]
COc1c(OCCF)cccc1C(O)C1CCN(CCc2ccc(F)cc2)CC1 (stereo not given) | 8.05 |  |  |  |  |  |  |  |  |  |  |  |  | 
COc1c(OCC[18F])cccc1C(O)C1CCN(CCc2ccc(F)cc2)CC1 (stereo not given) |  | 31.4 | 19.2 | 32 | 51.6 | 16.8 | 26.9 | 59.5 | 27.27 | 7 | 43 | 16 | 23.3 | 
O=C(c1ccc(F)cc1)C1CCN(CCn2c(=S)[nH]c3ccccc3c2=O)CC1 [ALTANSERIN] | 9.13 |  |  |  |  |  |  |  |  |  |  |  |  | 9.89
